This passage reports MIC and LD50 results from patent US4195171A, “Derivatives of an antibiotic XK-62-2 and process for the production thereof” (Abbott Laboratories, priority 1975, dated 1980).

The subject of data set [1] is Pseudomonas aeruginosa KY 8510. Briefly: Antibacterial spectrum, MIC by agar dilution method. It is filed as cell-based. An excerpt:
(§1) XK-62-2, 1-N-[L-(-)-α-hydroxy-γ-aminobutyryl] XK-62-2, Compounds (I-1), (I-2), (II-1) and (II-2) against various Gram-negative and Gram-positive bacteria determined by agar dilution method at pH 7.2.
(§2) ^1 produces kanamycin acetyltransferase

Data set [2] relates to Escherichia coli KY Z-343. The data set is described as above. It is filed as cell-based. The following applies: KYZ343, pH 7.2, strain produces kanamycin acetyltransferase, read-out: Minimum Inhibitory Concentration.
From the text: as §1, §2

In data set [3] the test system is Serratia marcescens POE 1065. The data set is described as above. It is filed as cell-based.
From the text: as §1, §2

Data set [4] concerns Pseudomonas aeruginosa KY 8516. The description is as above. It is filed as cell-based.
From the text: as §1, §2

Data set [5] is described as follows: Acute toxicity (LD50) in mice. The following applies: mouse, in vivo, route not stated. An excerpt:
XK-62-2, Compounds (I-2), (II-1) and (II-2) in mice.

Data set [6] relates to Pseudomonas aeruginosa BMH 10. Briefly: Antibacterial spectrum, MIC by agar dilution method. The following applies: BMH10, pH 7.2, read-out: Minimum Inhibitory Concentration. It is filed as cell-based.
From the text: as §1

The test system of data set [7] is Staphylococcus aureus 209 P. The data set is described as above. The data set is classed as cell-based. The following applies: pH 7.2, read-out: Minimum Inhibitory Concentration.
From the text: as §1

In a further data set the test system is Proteus mirabilis 1287. The data set is described as above. It is filed as cell-based. Conditions: pH 7.2, read-out: Minimum Inhibitory Concentration.
From the text: as §1

Another data set has as its system Escherichia coli T-5. The description is as above. It is filed as cell-based.
From the text: as §1

The subject of data set [8] is Staphylococcus aureus Smith. Described as above. It is filed as cell-based. The following applies: pH 7.2, read-out: Minimum Inhibitory Concentration.
From the text: as §1

Data set [9] relates to Salmonella enteritidis G-14. The description is as above. It is filed as cell-based. The following applies: Salmonella enterica, pH 7.2, read-out: Minimum Inhibitory Concentration.
From the text: as §1

Where [10] appears, read: KY8510, pH 7.2, read-out: Minimum Inhibitory Concentration.
Setting [11] is: POE1065, pH 7.2, read-out: Minimum Inhibitory Concentration.
Setting [12] is: KY8516, pH 7.2, read-out: Minimum Inhibitory Concentration.
Where [13] appears, read: T5, agar dilution, pH 7.2, read-out: Minimum Inhibitory Concentration.
Where [14] appears, read: KY8510, agar dilution, pH 7.2, strain produces kanamycin acetyltransferase, read-out: Minimum Inhibitory Concentration.
[15] abbreviates: POE1065, agar dilution, pH 7.2, strain produces kanamycin acetyltransferase, read-out: Minimum Inhibitory Concentration.
Setting [16] is: KY8516, agar dilution, pH 7.2, strain produces kanamycin acetyltransferase, read-out: Minimum Inhibitory Concentration.

Converted amounts (≈) assume the structure as drawn. Read-outs that look alike come from different tables or passages of the source.

In the case of `CNCC1CCC(N)C(OC2C(N)CC(NC(=O)C(O)CN)C(OC3OCC(C)(O)C(N)C3O)C2O)O1` (racemic) [II-1, 3"-N-demethyl-1-N-(DL-α-hydroxy-β-aminopropionyl) XK-62-2], the MIC in data set [1] (setting [10]) was 3.12 µg/mL (≈ 5.81 µM); in data set [2], 0.4 µg/mL (≈ 0.745 µM); in [3] (setting [11]), 3.12 µg/mL (≈ 5.81 µM); in data set [4] (setting [12]), 3.12 µg/mL (≈ 5.81 µM); in data set [6], 0.4 µg/mL (≈ 0.745 µM); in data set [7], 0.4 µg/mL (≈ 0.745 µM). The MIC in the data set on Proteus mirabilis 1287 came to 25 µg/mL (≈ 46.6 µM); in the data set with Escherichia coli T-5 (setting [13]), 1.56 µg/mL (≈ 2.91 µM); in data set [8], 0.4 µg/mL (≈ 0.745 µM); in data set [9] it was 3.12 µg/mL (≈ 5.81 µM). Further, the LD50 in data set [5] stood at 175 mg/kg.

With `CC1(O)COC(OC2C(NC(=O)C(O)CCN)CC(N)C(OC3OC(CN)CCC3N)C2O)C(O)C1N` (single isomer, unassigned) [Compound I-2, 3"-N, 6'-N-didemethyl-1-N-[L-(-)-α-hydroxy-γ-aminobutyryl] XK-62-2], the MIC in [1] (setting [14]) came out at 12.5 µg/mL (≈ 23.3 µM); in data set [2] it was 0.2 µg/mL (≈ 0.373 µM); in data set [3] (setting [15]) it was 25 µg/mL (≈ 46.6 µM); in data set [4] (setting [16]), 25 µg/mL (≈ 46.6 µM); in [6] it was 0.4 µg/mL (≈ 0.745 µM); in data set [7], 0.2 µg/mL (≈ 0.373 µM). Also, the MIC is 12.5 µg/mL (≈ 23.3 µM) in the data set with Proteus mirabilis 1287; 1.56 µg/mL (≈ 2.91 µM) in the data set on Escherichia coli T-5 (T5, pH 7.2, read-out: Minimum Inhibitory Concentration); 0.2 µg/mL (≈ 0.373 µM) in [8]; 12.5 µg/mL (≈ 23.3 µM) in [9] (agar dilution). This compound returned an LD50 in data set [5] of 200 mg/kg.

As for `CC1(O)COC(OC2C(NC(=O)C(O)CN)CC(N)C(OC3OC(CN)CCC3N)C2O)C(O)C1N` (racemic) [Compound I-1, 3"-N, 6'-N-didemethyl-1-N-(DL-α-hydroxy-β-aminopropionyl) XK-62-2], the MIC in data set [1] (setting [14]) was 12.5 µg/mL (≈ 23.9 µM); in data set [2], 0.4 µg/mL (≈ 0.765 µM); in [3] (setting [15]), 50 µg/mL (≈ 95.7 µM); in data set [4] (setting [16]), 50 µg/mL (≈ 95.7 µM); in data set [6], 0.4 µg/mL (≈ 0.765 µM); in [7] it was 0.2 µg/mL (≈ 0.383 µM). In addition, the MIC in the data set on Proteus mirabilis 1287 came to 12.5 µg/mL (≈ 23.9 µM); in the data set on Escherichia coli T-5 (setting [13]) it was 1.56 µg/mL (≈ 2.99 µM); in data set [8], 0.2 µg/mL (≈ 0.383 µM); in data set [9] (agar dilution), 6.25 µg/mL (≈ 12 µM).

Consider `CNCC1CCC(N)C(OC2C(N)CC(NC(=O)C(O)CCN)C(OC3OCC(C)(O)C(NC)C3O)C2O)O1` (single isomer, unassigned) [1-N-[L-(-)-α-hydroxy-γ-aminobutyryl] XK-62-2, reference compound], for which the MIC in [1] (setting [14]) was 3.12 µg/mL (≈ 5.53 µM); in [2] it was 0.1 µg/mL (≈ 0.177 µM); in data set [3] (setting [15]), 0.78 µg/mL (≈ 1.38 µM); in [4] (setting [16]), 3.12 µg/mL (≈ 5.53 µM); in [6] it was 0.4 µg/mL (≈ 0.708 µM); in data set [7], 0.4 µg/mL (≈ 0.708 µM). Further, the MIC was determined as 12.5 µg/mL (≈ 22.1 µM) in the data set with Proteus mirabilis 1287, 0.4 µg/mL (≈ 0.708 µM) in the data set on Escherichia coli T-5 (setting [13]), 0.1 µg/mL (≈ 0.177 µM) in data set [8] and 3.12 µg/mL (≈ 5.53 µM) in [9] (agar dilution). The compound further displayed a 50% lethal dose (LD50) in data set [5] of 180 mg/kg.

Regarding `CNCC1CCC(N)C(OC2C(N)CC(NC(=O)C(O)CCN)C(OC3OCC(C)(O)C(N)C3O)C2O)O1` (single isomer, unassigned) [II-2, 3"-N-demethyl-1-N-[L-(-)-α-hydroxy-γ-aminobutyryl] XK-62-2], the MIC was found to be 3.12 µg/mL (≈ 5.67 µM) in [1] (setting [10]); 0.2 µg/mL (≈ 0.363 µM) in data set [2]; 3.12 µg/mL (≈ 5.67 µM) in data set [3] (setting [11]); 3.12 µg/mL (≈ 5.67 µM) in data set [4] (setting [12]); 0.4 µg/mL (≈ 0.726 µM) in data set [6]; 0.4 µg/mL (≈ 0.726 µM) in data set [7]. Also, the MIC worked out at 12.5 µg/mL (≈ 22.7 µM) in the data set on Proteus mirabilis 1287, 0.4 µg/mL (≈ 0.726 µM) in the data set with Escherichia coli T-5 (setting [13]), 0.4 µg/mL (≈ 0.726 µM) in [8] and 3.12 µg/mL (≈ 5.67 µM) in data set [9]. The LD50 in [5] was 250 mg/kg.

Regarding `CNCC1CCC(N)C(OC2C(N)CC(NC(=O)C(O)CN)C(OC3OCC(C)(O)C(NC)C3O)C2O)O1` (racemic) [1-N-(DL-α-hydroxy-β-aminopropionyl) XK-62-2, reference compound], the MIC in [1] (setting [14]) came out at 3.12 µg/mL (≈ 5.67 µM); in data set [2], 0.2 µg/mL (≈ 0.363 µM); in [3] (setting [15]) it was 0.78 µg/mL (≈ 1.42 µM); in [4] (setting [16]), 3.12 µg/mL (≈ 5.67 µM); in [6] it was 0.4 µg/mL (≈ 0.726 µM); in data set [7], 0.4 µg/mL (≈ 0.726 µM). For the same compound, the MIC in the data set on Proteus mirabilis 1287 stood at 12.5 µg/mL (≈ 22.7 µM); in the data set with Escherichia coli T-5 (setting [13]), 0.78 µg/mL (≈ 1.42 µM); in data set [8], 0.2 µg/mL (≈ 0.363 µM); in data set [9] (agar dilution), 6.25 µg/mL (≈ 11.4 µM). In addition, the LD50 in data set [5] was 185 mg/kg.
